Target: T1, Solute carrier family 22 member 6 (Rattus norvegicus, UniProt O35956)
T1 sequence (O35956 whole entry): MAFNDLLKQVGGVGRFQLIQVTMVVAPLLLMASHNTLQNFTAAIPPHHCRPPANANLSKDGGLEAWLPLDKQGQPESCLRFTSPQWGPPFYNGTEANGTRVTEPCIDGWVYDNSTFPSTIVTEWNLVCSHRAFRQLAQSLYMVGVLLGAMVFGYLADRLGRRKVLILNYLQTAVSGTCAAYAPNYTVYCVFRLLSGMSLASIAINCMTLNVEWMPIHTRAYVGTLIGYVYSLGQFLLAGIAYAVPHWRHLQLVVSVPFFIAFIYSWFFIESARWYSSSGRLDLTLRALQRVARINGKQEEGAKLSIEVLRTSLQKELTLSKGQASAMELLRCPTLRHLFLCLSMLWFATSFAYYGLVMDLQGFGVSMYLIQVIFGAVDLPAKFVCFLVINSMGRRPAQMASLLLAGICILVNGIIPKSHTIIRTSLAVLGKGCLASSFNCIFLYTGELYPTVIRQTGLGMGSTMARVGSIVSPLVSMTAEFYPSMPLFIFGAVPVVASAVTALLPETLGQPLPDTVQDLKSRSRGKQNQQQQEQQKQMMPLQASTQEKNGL
Experiment: TP_TRANSPORTER: inhibition of PAH uptake (PAH: 10 uM, Corticosterone: 500 uM) in Xenopus laevis oocytes
Type: functional, cell-based
Conditions: oocyte

In the case of C[C@]12C[C@H](O)[C@H]3[C@@H](CCC4=CC(=O)CC[C@@]43C)[C@@H]1CC[C@@H]2C(=O)CO [CORTICOSTERONE], the Activity is reported as “inhibitor [(at a rough estimate) 25 % of control]”.

From ChEMBL document CHEMBL2074226, “Molecular evidence of organic ion transporters in the rat adrenal cortex with adrenocorticotropin-regulated zonal expression” (Endocrinology, 2003)
